The results in this text go back to patent publication US20220031719A1, “ANTIVIRAL THERAPEUTIC DRUG COMBINATIONS” (THE UNIVERSITY OF TULSA, priority 2020, published 2022).

Common to all, as to format: cell-based
The subject of one assay is h293 cells. Briefly: ATP levels by CellTiterGlo in h293 cells (inhibition assays). Here is the method: Drugs. All drugs were obtained from Sigma except diphenhydramine (purchased commercially as 25 mg allergy tablets) and famotidine (purchased commercially as 10 mg acid controller tablets). All compounds were dissolved in ultrapure water except quinine, which was re-suspended in ethanol. Rotenone was prepared as a concentrated solution in 100% DMSO, then diluted to a working stock (125 μM) in water (final concentration 2.5 μM). 2-DG was used at a final concentration of 20 mM. Diphenhydramine and famotidine were crushed by mortar and pestle, re-suspended in H2O and rotated at room temperature for 1 h. Insoluble material (e.g., cellulose) was removed by centrifugation. […] Cigar smoke was generated from commercially available Backwoods brand containing nicotine.
Cell culture. The following immortalized cells were obtained from the American Tissue Culture Collection: H293 kidney epithelial cells, HDFs (human diploid fibroblasts immortalized by telomerase expression), and U549 lung carcinoma cells. Cells were maintained in DMEM (Fisher Scientific) supplemented with 10% fetal bovine serum (FBS; Atlas Biologicals, Fort Collins, Colo.). DMEM media contained high glucose (25 mM) and the standard amino acids as carbon sources. Cultures were maintained in a 37° C. water jacketed incubator with 5% CO2. When needed cells were removed from the plate using trypsin. It is important to note that FBS and many commercial preparations of trypsin contain glucose. Unless indicated otherwise, after removal, cells were pelleted by centrifugation (2K 4 min room temperature), aspirated, and re-suspended in the desired media. Other media used in this study were DMEM no glu (Fisher Scientific), which is identical to DMEM except it lacks glucose. L-15 media (Fisher Scientific) contains amino acids but replaces glucose with 5 mM galactose. It also lacks sodium bicarbonate (NaHCO3), which was added to the same concentration as in DMEM (44 mM) in all experiments except FIGS. 4A and 4B. Its presence is essential to buffer the media and prevent its acidification in the CO2 incubator. A DMEM type media lacking sodium bicarbonate was also generated using individual components obtained from Fisher Scientific and Sigma. This media was used for FIG. 4D, where its pH was varied by the addition of 500 mM Hepes pH 7-10 (25 mM final concentration).
Inhibition assays. In general, short term immediate effects of the indicated drugs on ATP levels were analyzed by removing growing cells from a p100 mm plate using trypsin, washing with PBS, and re-suspending in the indicated media. After counting using a hemocytometer, 25-50k cells in […] media were distributed in a 96 well white flat bottom, non-treated polystyrene assay plate. In some cases, media was supplemented by the addition of glucose (20 mM final). The plate was typically incubated for 30 min at 37° C. in a CO2 incubator to allow metabolic pathways to adapt to the media. Drugs when then added in the order and at the concentration indicated for each figure, followed by shaking (700 RPM 10 sec), and returned to the incubator. Incubation times were generally between 1 and 2 h so that direct and immediate effects on ATP production could be evaluated. In most cases samples were run in duplicate or triplicate and the standard deviation determined. FIG. 1B is a more traditional drug analysis, in that cells were seeded in a tissue culture treated 96-well plate, allowed to attach overnight, then treated with 10 μL CellTiterBlue resazurin reagent (Promega) to determine effects on viability. Plates were shaken and incubated in the dark for 1-4 h, followed by excitation at 560 nm and determination of fluorescence emitted at 590 nm using a Tecan Safire plate reader. […] Luciferase activity alone (FIG. 1C) was measured by adding 10 CellTiterGlo reagent to 100 μL DMEM media in the absence of cells. […] The luminescence was determined immediately and at later times as described above.

Assay [1] concerns Human Diploid Fibroblasts (HDFs). Nature of the assay: ATP levels by CellTiterGlo in Human Diploid Fibroblasts. As to conditions: HDFs in DMEM, in the presence of 2-DG.
Procedure: Cell culture. […] Cells were maintained in DMEM (Fisher Scientific) supplemented with 10% fetal bovine serum (FBS; Atlas Biologicals, Fort Collins, Colo.). DMEM media contained high glucose (25 mM) and the standard amino acids as carbon sources. Cultures were maintained in a 37° C. water jacketed incubator with 5% CO2. When needed cells were removed from the plate using trypsin. […] Unless indicated otherwise, after removal, cells were pelleted by centrifugation (2K 4 min room temperature), aspirated, and re-suspended in the desired media.
Inhibition assays. In general, short term immediate effects of the indicated drugs on ATP levels were analyzed by removing growing cells from a p100 mm plate using trypsin, washing with PBS, and re-suspending in the indicated media. After counting using a hemocytometer, 25-50k cells in 100 mL media were distributed in a 96 well white flat bottom, non-treated polystyrene assay plate. In some cases, media was supplemented by the addition of glucose (20 mM final). […] Incubation times were generally between 1 and 2 h so that direct and immediate effects on ATP production could be evaluated. In most cases samples were run in duplicate or triplicate and the standard deviation determined. […] The luminescence was determined immediately and at later times as described above.
For another assay, the system named is Red blood cells. Nature of the assay: ATP levels by CellTiterGlo in red blood cells. As to conditions: RBCs in DMEM containing 5 mM glucose.
Where [2] appears, read: h293 cells in DMEM (glucose and amino acids), drug alone, short exposure (2 h), no 2-DG or rotenone.
[3] abbreviates: h293 cells in DMEM containing amino acids but lacking glucose, drug alone.
The mark [4] stands for this setting: h293 cells in DMEM, in the presence of 2-DG (forced TCA/ETC), drug 2 h.
[5] abbreviates: h293 cells in DMEM, in the presence of rotenone (forced glycolysis), drug 2 h.
Setting [6] is: h293 cells in L-15 media (galactose, plus NaHCO3), no glucose, drug titration.
Where [7] appears, read: h293 cells in L-15 media lacking NaHCO3 (acidified), 37° C. CO2 incubator.
Where [8] appears, read: h293 cells in L-15 media plus glucose, drug titration.
The mark [9] stands for this setting: h293 cells in DMEM no glucose (amino acids only), metabolic inhibitors for 1 h.
[10] abbreviates: h293 cells in DMEM with glucose, metabolic inhibitors for 1 h (2-DG 20 mM, rotenone 2.5 μM).
The mark [11] stands for this setting: h293 cells in L-15 media (galactose instead of glucose), metabolic inhibitors.

“Also recorded” adds a separate entry of the source. Read-outs that look alike come from different tables or passages of the source.

As for `CN1CCCC1c1cccnc1` (stereo not shown) [nicotine], the “effect on ATP levels” value in the assay on h293 cells is reported as “specificity for inhibiting mitochondrial ATP production”.
Consider `CCN(CC)CCCC(C)Nc1ccnc2cc(Cl)ccc12` (stereo not shown) [CQ, chloroquine], for which the “effect on ATP levels” value is given as “no apparent effect on ATP levels” with h293 cells (setting [2]); “minimal effect on ATP levels” with h293 cells (h293 cells in DMEM no glucose with glucose added back); “markedly reduced; also recorded: synergistic effect that dramatically reduced ATP production” with h293 cells (setting [4]); “no effect on ATP levels” in the assay on h293 cells (setting [5]); “confirmed” in assay [1]. The “effect on ATP production” value with h293 cells (setting [3]) is on record as “inhibited ATP production”; in the assay with h293 cells (setting [6]) it was “inhibited ATP production; also recorded: very sensitive”; in the assay on h293 cells (setting [7]) it was “no CQ inhibition”; with h293 cells (setting [8]) it was “prevented inhibition”. Moreover, in the assay on h293 cells (h293 cells in L-15 media plus sodium bicarbonate, 250 μM CQ), the “time course of inhibition of ATP production” value is reported as “increased dramatically over time”. In addition, the “ATP production after order of addition” value in the assay on h293 cells (h293 cells in media containing glucose treated with CQ, then 2-DG added) was “re-established inhibition of ATP production; also recorded: CQ inhibition is revealed in the presence of 2-DG”. Moreover, the “ATP levels after order of addition” value in the assay on h293 cells (h293 cells pre-incubated with CQ 2 h in media lacking glucose, then glucose added for 1 h) is given as “re-established ATP levels; also recorded: glucose overcomes CQ inhibition”. Moreover, the “pH dependency of inhibition of ATP production” value in the assay on h293 cells (h293 cells, 1 h in DMEM type media lacking NaHCO3 adjusted to pH 7 to 10 with 25 mM Hepes, then L-15) is recorded as “dramatic increase in CQ inhibition with increasing pH; also recorded: Increasing media pH increases ability of CQ to inhibit ATP production”. For the same molecule, the “effect on ATP levels (CellTiterGlo)” value in the assay with h293 cells (h293 cells, overnight titration, same cells as CellTiterBlue) is reported as “clear CQ dependent decrease”. In the assay with Red blood cells, the “effect on ATP production via glycolysis” value is recorded as “no effect on ATP production”.
Consider `CCN(CCO)CCCC(C)Nc1ccnc2cc(Cl)ccc12` (stereo not shown) [HCQ, hydroxychloroquine], for which the entries for the “effect on ATP production” value with h293 cells (setting [3]), in the assay on h293 cells (setting [6]) and in the assay with h293 cells (setting [8]) were “inhibited ATP production”, “inhibited ATP production; also recorded: very sensitive” and “prevented inhibition”, respectively. The “effect on ATP levels” value is given as “synergistic effect that dramatically reduced ATP production” in the assay with h293 cells (setting [4]) and “no effect on ATP levels” in the assay with h293 cells (setting [5]).
As for `O=CC[C@@H](O)[C@H](O)[C@H](O)CO` [2-DG, 2-deoxy-D-glucose], the figures for the “effect on ATP production” value in the assay with h293 cells (setting [9]), in the assay on h293 cells (setting [11]) and in the assay on h293 cells (setting [7]) were “significant inhibition”, “partially inhibited” and “sensitive”, respectively. The “effect on ATP levels” value with h293 cells (setting [10]) is “minimal effect on ATP levels”.
Turning to `C=C(C)[C@H]1Cc2c(ccc3c2O[C@@H]2COc4cc(OC)c(OC)cc4[C@@H]2C3=O)O1` [rotenone], the “effect on ATP production” value was “complete inhibition” with h293 cells (setting [9]), “completely inhibited” in the assay on h293 cells (setting [11]) and “sensitive” in the assay with h293 cells (setting [7]). The “effect on ATP levels” value in the assay with h293 cells (setting [10]) was “no effect”.
`CN(C)CCOC(c1ccccc1)c1ccccc1` [diphenhydramine]: the “effect on ATP levels” value with h293 cells (setting [2]) is “minimal effect on ATP production”; with h293 cells (setting [4]) it was “strongly inhibited; also recorded: specifically inhibited mitochondrial ATP production”.
Regarding `NC(N)=Nc1nc(CSCCC(N)=NS(N)(=O)=O)cs1` [famotidine], the “effect on ATP levels” value in the assay on h293 cells (setting [2]) and with h293 cells (setting [4]) was “no effect on ATP production” each time.
As for `C=C[C@H]1C[N@@]2CC[C@H]1C[C@H]2[C@H](O)c1ccnc2ccc(OC)cc12` [Quinine, quinine], the “effect on ATP levels” value with h293 cells (setting [4]) is reported as “much more dramatic in the presence of 2-DG”.
